# Test results as given in the supplement of paper PMC10331698.
# ± gives the standard deviation of the averaged measurements.
# Key:
# Experiment in all cases: level (log10 ratio to DMSO vehicle control); higher = higher biomarker level / cell amount than vehicle control
# Conditions in all cases: in DMSO
# [1] = compound: FC(F)(F)C(F)(F)C(F)(F)CI [Heptafluorobutyl iodide]
# Method: (§1)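 BioMAP Diversity Plus panel of 12 human primary cell co-culture systems (3C, 4H, LPS, SAg, BT, BF4T, BE3C, CASM3C, HDF3CGF, KF3CT, MyoF, Mphg). Compounds were added 1 h before stimulation and left for 24 h (MyoF 48 h; BT 72 h for soluble read-outs or 6 d for IgG). Biomarkers were read by ELISA, cytotoxicity by SRB, PBMC viability and proliferation by Alamar Blue. Each well value was divided by the mean of 8 DMSO control wells on the same plate and log10 transformed; duplicate blinded samples were tested at 4 concentrations.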
# [2] = compound: FC(F)(F)C(F)(F)C(F)(F)C(F)(F)C(F)(F)C(F)(F)CC1CO1 [3-(Perfluorohexyl)-1,2-epoxypropane]
# Method: as §1
# [3] = compound: NC(=O)C(F)(F)C(F)(F)C(F)(F)C(F)(F)C(N)=O [Octafluoroadipamide]
# Method: as §1
# [4] = compound: O=S(=O)(O)CCC(F)(F)C(F)(F)C(F)(F)C(F)(F)C(F)(F)C(F)(F)F [6:2 Fluorotelomer sulfonic acid]
# Method: as §1
# [5] = compound: FC(F)(F)C(F)(F)C(F)(F)C(F)(F)C(F)(F)C(F)(F)C(F)(F)I [1-Iodopentadecafluoroheptane]
# Method: as §1
# [6] = compound: O=S(=O)(Cl)C(F)(F)C(F)(F)C(F)(F)C(F)(F)C(F)(F)C(F)(F)C(F)(F)C(F)(F)F [Perfluoro-1-octanesulfonyl chloride]
# Method: as §1
# [7] = compound: O=S(=O)(F)C(F)(F)C(F)(F)C(F)(F)C(F)(F)C(F)(F)C(F)(F)C(F)(F)C(F)(F)F [Perfluorooctanesulfonyl fluoride]
# Method: as §1
Test System,level (log10) ([1]; 6700 nM),level (log10) ([1]; 20000 nM),level (log10) ([1]; 60000 nM),level (log10) ([2]; 6700 nM),level (log10) ([2]; 20000 nM),level (log10) ([2]; 60000 nM),level (log10) ([3]; 6700 nM),level (log10) ([3]; 20000 nM),level (log10) ([3]; 60000 nM),level (log10) ([4]; 6700 nM),level (log10) ([4]; 20000 nM),level (log10) ([4]; 60000 nM),level (log10) ([5]; 6700 nM),level (log10) ([5]; 20000 nM),level (log10) ([6]; 6700 nM),level (log10) ([6]; 20000 nM),level (log10) ([6]; 60000 nM),level (log10) ([7]; 6700 nM),level (log10) ([7]; 20000 nM),level (log10) ([7]; 60000 nM)
KF3CT:CCL2/MCP-1,-0.0045 ± 0.0021,-0.018 ± 0.013,0.0195 ± 0.016,0.0005 ± 0.0092,-0.0125 ± 0.03,0.0075 ± 0.053,-0.017 ± 0.0085,-0.026 ± 0.013,-0.001 ± 0.021,0.0125 ± 0.00071,0.0035 ± 0.013,-0.0145 ± 0.043,0.0065 ± 0.0092,0.0015 ± 0.016,-0.031 ± 0.025,-0.0315 ± 0.019,-0.0485 ± 0.016,-0.0055 ± 0.0035,-0.0305 ± 0.033,0.001 ± 0.052
lMphg:CCL2/MCP-1,0.0255 ± 0.00071,-0.006 ± 0.0028,0.0135 ± 0.0021,-0.009 ± 0.031,-0.0255 ± 0.026,0.0025 ± 0.044,0.0185 ± 0.016,0.0035 ± 0.0021,0.005 ± 0.025,-0.0195 ± 0.012,-0.005 ± 0.0099,0.027 ± 0.025,0.009 ± 0.0085,0.018 ± 0.02,0.0175 ± 0.0092,0.0255 ± 0.0092,0.032 ± 0.0028,-0.004 ± 0.023,-0.0245 ± 0.023,-0.0165 ± 0.0021
MyoF:PAI-I,-0.0105 ± 0.0021,-0.005 ± 0.0028,0.007 ± 0.023,0.011 ± 0.0099,-0.0035 ± 0.00071,0.0055 ± 0.0021,-0.008 ± 0.027,0.0045 ± 0.0035,0.009 ± 0.0042,-0.0035 ± 0.0021,-0.011 ± 0.0014,-0.0035 ± 0.015,-0.013 ± 0.016,-0.075,-0.018 ± 0.016,-0.0325 ± 0.016,-0.0415 ± 0.013,-0.0045 ± 0.0035,-0.0015 ± 0.00071,0.006 ± 0.0099
3C:CD54/ICAM-1,-0.0075 ± 0.015,-0.0035 ± 0.0092,-0.0055 ± 0.005,-0.0115 ± 0.00071,-0.0275 ± 0.015,-0.015 ± 0.011,-0.0125 ± 0.0021,-0.019 ± 0.0071,-0.006 ± 0.0085,-0.012 ± 0.021,-0.006 ± 0.021,-0.004 ± 0.011,-0.0115 ± 0.00071,0.014 ± 0.016,-0.027 ± 0.0099,-0.0215 ± 0.023,-0.0045 ± 0.0078,-0.0025 ± 0.011,-0.007 ± 0.0042,0.005 ± 0.0028
lMphg:SRB-Mphg,-0.0065 ± 0.005,0.0055 ± 0.0078,0.007 ± 0.031,0.0095 ± 0.0092,0.0035 ± 0.012,0.013 ± 0.0014,-0.02 ± 0.027,-0.0265 ± 0.018,0.003 ± 0.018,0.0065 ± 0.0064,0.0135 ± 0.0078,0.0025 ± 0.036,0.005 ± 0.018,0.0125 ± 0.011,0.0025 ± 0.013,0.004 ± 0.016,-0.0185 ± 0.025,0.0065 ± 0.005,-0.004,0.004 ± 0.0042
KF3CT:IL-1alpha,-0.0025 ± 0.0078,-0.04 ± 0.0042,-0.044 ± 0.0057,-0.0185 ± 0.0078,0.0085 ± 0.018,0.0015 ± 0.0021,0.014 ± 0.0028,0 ± 0.037,0.017 ± 0.017,0.0115 ± 0.016,0.0005 ± 0.016,-0.0255 ± 0.039,-0.006 ± 0.0042,-0.004 ± 0.0071,-0.013 ± 0.0085,-0.03 ± 0.02,-0.055 ± 0.0014,-0.0055 ± 0.026,0.007 ± 0.013,-0.0145 ± 0.026
4H:CCL2/MCP-1,-0.007 ± 0.027,-0.0215 ± 0.011,-0.0265 ± 0.021,0.03 ± 0.0099,-0.0175 ± 0.0064,0.0125 ± 0.019,-0.013 ± 0.0014,-0.023 ± 0.0085,-0.0005 ± 0.019,-0.0135 ± 0.056,0.0065 ± 0.029,-0.02 ± 0.011,-0.015 ± 0.033,0.0095 ± 0.037,-0.0125 ± 0.021,-0.0475 ± 0.0035,-0.11 ± 0.12,0,-0.0195 ± 0.0035,-0.0005 ± 0.023
HDF3CGF:SRB,-0.0315 ± 0.012,0.0025 ± 0.037,0.0275 ± 0.04,-0.001 ± 0.031,-0.0035 ± 0.015,-0.006 ± 0.04,-0.0135 ± 0.047,-0.0225 ± 0.066,-0.0195 ± 0.046,0.0055 ± 0.044,0.0255 ± 0.056,0.023 ± 0.085,0.013 ± 0.021,-0.002 ± 0.016,0.015 ± 0.021,-0.0095 ± 0.005,-0.0345 ± 0.035,0.017 ± 0.0014,0.0365 ± 0.025,0.043 ± 0.034
MyoF:SRB,0.002 ± 0.0028,-0.0015 ± 0.0021,0.0075 ± 0.011,-0.007 ± 0.0057,-0.005 ± 0.0057,0.0015 ± 0.011,-0.004 ± 0.0028,-0.01 ± 0.0042,-0.0055 ± 0.0078,-0.002 ± 0.0014,0.0005 ± 0.0092,-0.0015 ± 0.0021,-0.0135 ± 0.00071,-0.131 ± 0.012,0.005 ± 0.014,-0.009,-0.0695 ± 0.0092,-0.0155 ± 0.012,-0.0245 ± 0.025,0.004 ± 0.0085
lMphg:CCL3/MIP-1alpha,0.023 ± 0.079,0.0315 ± 0.11,0.06 ± 0.045,-0.0345 ± 0.035,-0.029 ± 0.034,-0.009 ± 0.021,0.0425 ± 0.032,0.019 ± 0.047,0.0295 ± 0.013,0.014 ± 0.021,0.072 ± 0.02,0.0565 ± 0.039,0.0225 ± 0.023,0.0175 ± 0.049,0.038 ± 0.03,0.004 ± 0.041,0.025 ± 0.018,-0.0035 ± 0.053,-0.004 ± 0.021,-0.001 ± 0.017
HDF3CGF:Collagen III,-0.043 ± 0.12,-0.051 ± 0.018,-0.0075 ± 0.11,-0.0075 ± 0.012,-0.005 ± 0.0099,0.0155 ± 0.046,0.0035 ± 0.044,0.0225 ± 0.00071,0.023 ± 0.052,-0.0555 ± 0.015,-0.0115 ± 0.019,0.03 ± 0.093,-0.024 ± 0.014,-0.023 ± 0.028,0.0055 ± 0.021,0.0365 ± 0.015,-0.008 ± 0.062,0.055 ± 0.016,0.039 ± 0.025,-0.03 ± 0.055
CASM3C:LDLR,-0.0015 ± 0.00071,0.0025 ± 0.005,0.0145 ± 0.015,-0.003 ± 0.02,0.0105 ± 0.012,0.025 ± 0.014,-0.0045 ± 0.0064,-0.005 ± 0.016,0.007 ± 0.0085,0.009 ± 0.0057,-0.001 ± 0.018,0.011 ± 0.04,-0.002 ± 0.013,-0.014,-0.0105 ± 0.005,-0.011 ± 0.017,0.0095 ± 0.037,0.0035 ± 0.0021,0.0015 ± 0.012,0.0055 ± 0.023
KF3CT:MMP-9,-0.0195 ± 0.035,-0.0185 ± 0.033,-0.005 ± 0.021,-0.014 ± 0.0042,-0.0225 ± 0.00071,-0.0155 ± 0.025,-0.0325 ± 0.016,-0.023 ± 0.0014,-0.0115 ± 0.03,-0.0285 ± 0.019,0.0085 ± 0.018,0.026 ± 0.0028,-0.05 ± 0.11,-0.0495 ± 0.056,-0.0225 ± 0.028,-0.0155 ± 0.013,-0.193 ± 0.026,-0.012 ± 0.035,-0.0185 ± 0.032,-0.0075 ± 0.035
KF3CT:PAI-I,0.0005 ± 0.0035,-0.0185 ± 0.016,-0.008 ± 0.0071,0.0145 ± 0.032,0.019 ± 0.0014,0.0195 ± 0.0021,-0.0155 ± 0.012,-0.0145 ± 0.025,0.004 ± 0.02,0.0025 ± 0.0021,-0.012 ± 0.018,-0.0135 ± 0.0092,-0.0055 ± 0.04,-0.0275 ± 0.028,-0.036 ± 0.014,-0.116 ± 0.0057,-0.2505 ± 0.0021,-0.0005 ± 0.018,-0.008 ± 0.0057,0.0025 ± 0.012
